Test results reported in ChEMBL document CHEMBL4004888, “New derivatives of quinoline-4-carboxylic acid with antiplasmodial activity” (Bioorg Med Chem, 2017).

Tests used:
[1] = Selectivity index, ratio of IC50 for rat L6 cells to IC50 for erythrocytic stage of chloroquine-sensitive Plasmodium falciparum NF54; assay type: toxicity; conditions: read-out: Ratio IC50
L6 = assay: Cytotoxicity against rat L6 cells after 70 hrs by alamar blue staining based fluorometric assay; assay type: cell-based; conditions: L6, 70 h
Plasmodium falciparum [2] = assay: Antiplasmodial activity against erythrocytic stage of chloroquine-sensitive Plasmodium falciparum NF54 assessed as reduction in [3H]hypoxanthine incorporation after 48 hrs by liquid scintillation counting method; assay type: functional
Plasmodium berghei [3] = assay: Antiplasmodial activity against erythrocytic stage of GFP-fused Plasmodium berghei ANKA infected in NMRI mouse assessed as reduction in parasitaemia at 50 mg/kg, ip for 4 days measured at 24 hrs post last dose by FACS analysis relative to control; assay type: functional; set-up: scale not given: the % may be the effect or the level left
[4] = Selectivity index, ratio of IC50 for rat L6 cells to IC50 for erythrocytic stage of chloroquine/pyrimethamine-resistant Plasmodium falciparum K1; assay type: toxicity; conditions: L6 cells versus erythrocytic stage Plasmodium falciparum K1, read-out: Ratio IC50
Plasmodium falciparum [5] = assay: Antiplasmodial activity against erythrocytic stage of chloroquine/pyrimethamine-resistant Plasmodium falciparum K1 assessed as reduction in [3H]hypoxanthine incorporation after 48 hrs by liquid scintillation counting method; assay type: functional
Plasmodium berghei [6] = assay: Antiplasmodial activity against erythrocytic stage of GFP-fused Plasmodium berghei ANKA infected in NMRI mouse assessed as mouse survival days at 50 mg/kg, ip for 4 days measured up to 30 days post infection (reference value: 4 day); assay type: functional
Plasmodium berghei [7] = assay: Antiplasmodial activity against erythrocytic stage of GFP-fused Plasmodium berghei ANKA infected in NMRI mouse assessed as mouse survival days at 10 mg/kg, ip for 4 days measured up to 30 days post infection (reference value: 4 day); assay type: functional

SMILES	selectivity ratio [1]	IC50 (L6; read-out: IC50) [µM]	IC50 (Plasmodium falciparum [2]) [µM]	Activity (Plasmodium berghei [3]) [%]	selectivity ratio [4]	IC50 (Plasmodium falciparum [5]) [µM]	MSD (Plasmodium berghei [6]) [days]	MSD (Plasmodium berghei [7]) [days]	IC50 (L6) [µM]
O=C(c1cc(-c2ccc(CN3CCOCC3)cc2)nc2ccc(F)cc12)N1CCNCC1	13.5	105	7.78						
O=C(Nc1ccccc1)c1cc(-c2ccc(CN3CCOCC3)cc2)nc2ccc(F)cc12	10.1	17.7	1.76						
CC(C)(C)OC(=O)N1CCN(C(=O)c2cc(-c3ccc(CN4CCOCC4)cc3)nc3ccc(F)cc23)CC1	2.14	29.6	13.8						
O=C(c1cc(-c2ccc(CN3CCOCC3)cc2)nc2ccc(F)cc12)N1CCN(c2ccccc2)CC1	5	24.6	4.92						
O=C(Nc1ccc([N+](=O)[O-])cc1)c1cc(-c2ccc(CN3CCOCC3)cc2)nc2ccc(F)cc12	65.7	13.8	0.21						
Fc1ccc2nc(-c3ccc(CN4CCOCC4)cc3)cc(CN3CCN(c4ccccc4)CC3)c2c1	2.4	31.9	13.3						
CN(C)c1ccc(NC(=O)c2cc(-c3ccc(CN4CCOCC4)cc3)nc3ccc(F)cc23)cc1	11.4	12.4	1.09						
O=C(c1cc(-c2ccc(CN3CCOCC3)cc2)nc2ccc(F)cc12)N1CCN(C(=O)c2cc(-c3ccc(CN4CCOCC4)cc3)nc3ccc(F)cc23)CC1	19	128	6.73						
O=C(NCCN1CCN(c2ccccc2)CC1)c1cc(-c2ccc(CN3CCOCC3)cc2)nc2ccc(F)cc12	394	3.94	0.01	17.1	563	0.007	4		
Fc1ccc2nc(-c3ccc(CN4CCOCC4)cc3)cc(CN3CCNCC3)c2c1	6.62	14.5	2.19						
N=C(N)N1CCN(C(=O)c2cc(-c3ccc(CN4CCOCC4)cc3)nc3ccc(F)cc23)CC1	4.26	210	49.3						
CN1CCN(C(=O)c2cc(-c3ccc(CN4CCOCC4)cc3)nc3ccc(F)cc23)CC1	26.6	135	5.08						
CCN(CC)C(=O)c1cc(-c2ccc(CN3CCOCC3)cc2)nc2ccc(F)cc12	9.68	121	12.5						
O=C(NCCN1CCNCC1)c1cc(-c2ccc(CN3CCOCC3)cc2)nc2ccc(F)cc12	103	54.5	0.53						
COc1ccc(NC(=O)c2cc(-c3ccc(CN4CCOCC4)cc3)nc3ccc(F)cc23)cc1	11.5	6.77	0.59						
CC(C)(C)OC(=O)N1CCN(CCNC(=O)c2cc(-c3ccc(CN4CCOCC4)cc3)nc3ccc(F)cc23)CC1	64300	13.5	0.00021	98.1	15500	0.00087	8.3		
CN1CCN(Cc2cc(-c3ccc(CN4CCOCC4)cc3)nc3ccc(F)cc23)CC1	8.94	17.7	1.98						
CN1CCN(CCNC(=O)c2cc(-c3ccc(CN4CCOCC4)cc3)nc3ccc(F)cc23)CC1	75.2	82	1.09						
C[C@@H]1CC[C@H]2[C@@H](C)C(=O)O[C@@H]3O[C@@]4(C)CC[C@@H]1[C@]32OO4 [ARTEMISININ]					70300	0.0064			
O=C(NCCN1CCCC1)c1cc(-c2ccc(CN3CCOCC3)cc2)nc2ccc(F)cc12 [CABAMIQUINE]	219000	28.5	0.00013		129000	0.00022			
CCN(CC)CCCC(C)Nc1ccnc2cc(Cl)ccc12 (stereo unspecified) [CHLOROQUINE]								20	
COc1cc([C@@H]2c3cc4c(cc3[C@H](O)[C@H]3COC(=O)[C@H]23)OCO4)cc(OC)c1OC [PODOFILOX]									0.012
